Results published in patent US20230108934A1, “Stabilizing Camptothecin Pharmaceutical Compositions” (Ipsen Biopharm Ltd., priority 2015, published 2023).
Like-named read-outs stand apart in the source and are kept apart here.

What was measured:
[1] = Solubility determination of irinotecan sucrosofate in water; format: physicochemical; conditions: deionized water, 4-6° C., 22 hours
Procedure: An amount of 1.64 g of irinotecan hydrochloride trihydrate was added to 160 mL of water acidified with 0.008 mL of 1 N HCl, and heated on a 65° C. water bath with stirring until the drug was dissolved. Five mL of 0.46 M (based on sulfate concentration) triethylammonium sucrosofate were added with intensive stirring, and stirred for five minutes more. […] The precipitate was separated by centrifugation, and the supernatant solution was discarded. The pellet was resuspended in five volumes of deionized water, and precipitated by centrifugation; this washing step was repeated two more times until the pH of the suspension was about 5.8. […] An aliquot of the product was solubilized in 1 N HCl and analyzed for irinotecan (by spectrophotometry at 365 nm in 70% aqueous isopropanol-0.1 N HCl) and for sulfate after hydrolysis in a diluted (1:4) perchloric acid using a barium sulfate turbidimetric assay. […] The samples were incubated with agitation at 4-6° C. for 22 hours, the solid material was removed by centrifugation for 10 min at 14000 g, and the supernatant fluid was analyzed for irinotecan by spectrophotometry.

[2] = cited from earlier work

| concentration of irinotecan in solution ([1]; final drug salt concentration 0.93 mg/mL) | concentration of irinotecan in solution ([1]; final drug salt concentration 1.85 mg/mL) | concentration of irinotecan in solution ([1]; final drug salt concentration 3.71 mg/mL) | Structure (SMILES) | irinotecan in the more active lactone form ([2]; pH 6.0) | irinotecan in the more active lactone form ([2]; pH 6.5) | irinotecan in the more active lactone form ([2]; pH 7.5) |
| --- | --- | --- | --- | --- | --- | --- |
| 58.9±0.90 micro-g/mL | 63.2±0.6 micro-g/mL | 63.4±1.3 micro-g/mL | CCc1c2c(nc3ccc(OC(=O)N4CCC(N5CCCCC5)CC4)cc13)-c1cc3c(c(=O)n1C2)COC(=O)[C@]3(O)CC [irinotecan sucrosofate] |  |  |  |
|  |  |  | CCc1c2c(nc3ccc(OC(=O)N4CCC(N5CCCCC5)CC4)cc13)-c1cc3c(c(=O)n1C2)COC(=O)[C@]3(O)CC [irinotecan] | about 85% | about 65% | about 15% |
